Assay results published in patent EP4567040A1, “CRYSTAL FORM OF FUSED TRICYCLIC DERIVATIVE AND PREPARATION METHOD” (Jiangsu Hengrui Pharmaceuticals Co., Ltd., priority 2022, dated 2024).

Experiments:
Assay type in all cases: physicochemical
[1] = Hygroscopicity study of free-state crystal forms (DVS); conditions: for 0.0% RH-80.0% RH (hygroscopicity, mass change): DVS, 25 °C; for Crystal form: crystal form after DVS test
Description: Testing was performed using Surface Measurement Systems advantage 2, at 25 °C, with the humidity changing from 50% -95%-0%-95%-50%RH, in steps of 10%. The criterion was that each gradient mass change dM/dT is less than 0.002%, TMAX 360 min, two cycles.
Surface Measurement Systems intrinsic DVS was adopted. At 25 °C, the crystal forms were tested in a humidity range of 0%-95%, with increments of 10%. The criterion was that each gradient mass change dM/dT is less than 0.002%, TMAX 360 min, two cycles.

[2] = Influencing factor stability study of crystal forms; conditions: for physical stability / chemical stability: 30-day influencing factor experiments; for chemical stability: high temperature and high humidity conditions
Description: Example 50. Influencing Factor Stability Study of Crystal Forms Free-state samples were spread out, left to stand in open flasks, and subjected to 30-day stability tests under light exposure (4500 Lux), high temperature (40 °C and 60 °C), and high humidity (RH 75% and RH 92.5%) conditions.

[3] = Long-term/accelerated stability of crystal forms; conditions: for Purity%: sealed in aluminum foil bag
Description: Free-state samples were sealed in aluminum foil bags and left to stand under 25 °C/60% RH and 40 °C/75% RH conditions to test their stability.

[4] = 25 °C/60% RH, after standing up to 6 months
[5] = 40 °C/75% RH, after standing up to 6 months

Structure (SMILES)	0.0% RH-80.0% RH (hygroscopicity, mass change) [1]	Crystal form [1]	physical stability [2]	chemical stability [2]	Purity% ([3]; 25 °C/60% RH, 1 month)	Purity% ([3]; 25 °C/60% RH, 2 months)	Purity% ([3]; 25 °C/60% RH, 3 months)	Purity% ([3]; 25 °C/60% RH, 6 months)	Purity% ([3]; 25 °C/60% RH, 14 days)	Purity% ([3]; 25 °C/60% RH, Initial)	Crystal form [3, 4]	Purity% ([3]; 40 °C/75% RH, 1 month)	Purity% ([3]; 40 °C/75% RH, 2 months)	Purity% ([3]; 40 °C/75% RH, 3 months)	Purity% ([3]; 40 °C/75% RH, 6 months)	Purity% ([3]; 40 °C/75% RH, 14 days)	Purity% ([3]; 40 °C/75% RH, Initial)	Crystal form [3, 5]	also measured
C[C@H]1COc2c(-c3nc(N[C@@H]4CCOC[C@H]4O)ncc3Cl)cc(F)c3nc(C(C)(C)O)n1c23 [Crystal form G, (3S,4R)-4-((5-chloro-4-((S)-8-fluoro-2-(2-hydroxypropan-2-yl)-3-methyl-3,4-dihydro-5-oxa-1,2a-diazaacenaphthylen-6-yl)pyrimidin-2-yl)amino)tetrahydro-2H-pyran-3-ol]	2.46%	No change	good physical stability	good chemical stability	99.9%	99.9%	99.9%	99.9%	99.9%	99.9%	No change	99.9%	99.9%	99.9%	99.9%	99.9%	99.9%	No change	physical stability and chemical stability ([3]; long-term accelerated conditions for 6 months): good physical stability and chemical stability
C[C@H]1COc2c(-c3nc(N[C@@H]4CCOC[C@H]4O)ncc3Cl)cc(F)c3nc(C(C)(C)O)n1c23 [Crystal form H, (3S,4R)-4-((5-chloro-4-((S)-8-fluoro-2-(2-hydroxypropan-2-yl)-3-methyl-3,4-dihydro-5-oxa-1,2a-diazaacenaphthylen-6-yl)pyrimidin-2-yl)amino)tetrahydro-2H-pyran-3-ol]	0.28%	No change	good physical stability	good chemical stability	99.95%	99.95%	99.95%		99.95%	99.95%		99.95%	99.95%	99.95%		99.95%	99.95%		Crystal form ([3]; 25 °C/60% RH, after standing up to 3 months): No change; Crystal form ([3]; 40 °C/75% RH, after standing up to 3 months): No change; physical stability and chemical stability ([3]; long-term accelerated conditions for 3 months): good physical stability and chemical stability
C[C@H]1COc2c(-c3nc(N[C@@H]4CCOC[C@H]4O)ncc3Cl)cc(F)c3nc(C(C)(C)O)n1c23 [Free-state amorphous form, (3S,4R)-4-((5-chloro-4-((S)-8-fluoro-2-(2-hydroxypropan-2-yl)-3-methyl-3,4-dihydro-5-oxa-1,2a-diazaacenaphthylen-6-yl)pyrimidin-2-yl)amino)tetrahydro-2H-pyran-3-ol]			good physical stability	good chemical stability	99.0%	98.9%		98.8%	99.0%	99.0%	No change	99.0%	98.9%		98.8%	99.0%	99.0%	Deliquescence	Crystal form ([2]; 40 °C, 7 days, open flask): No change; Crystal form ([2]; 40 °C, 14 days, open flask): No change; Crystal form ([2]; 40 °C, 30 days, open flask): No change; Crystal form ([2]; 60 °C, 7 days, open flask): No change; Crystal form ([2]; 60 °C, 14 days, open flask): No change; Crystal form ([2]; 60 °C, 30 days, open flask): No change; Crystal form ([2]; 75% RH, 7 days, open flask): No change; Crystal form ([2]; 75% RH, 14 days, open flask): No change; Crystal form ([2]; 75% RH, 30 days, open flask): No change; Crystal form ([2]; 92.5% RH, 7 days, open flask): No change; Crystal form ([2]; 92.5% RH, 14 days, open flask): No change; Crystal form ([2]; 92.5% RH, 30 days, open flask): No change; Crystal form ([2]; Initial, 0 days): Free-state amorphous form; Crystal form ([2]; Light exposure (4500 Lux), 7 days, open flask): No change; Crystal form ([2]; Light exposure (4500 Lux), 14 days, open flask): No change; Crystal form ([2]; Light exposure (4500 Lux), 30 days, open flask): No change; deliquescence ([3]; accelerated conditions): deliquescence; physical stability and chemical stability ([3]; under other conditions (than those giving deliquescence)): good physical stability and chemical stability
